Assay results as given in patent US8530525B2 (priority 2009, dated 2013).

Legend:
[1] = target: α7 neuronal nAChR (Homo sapiens, UniProt P36544); conditions: cited from earlier work
[2] = in vivo; cited from earlier work
[3] = target: α3β4 (Homo sapiens, UniProt P30926+P32297); conditions: cited from earlier work
[4] = test system: population spikes (PS) recorded from the CA1 area of the rat hippocampal slice; type: cell-based
[5] = test system: population spikes (PS) of the hippocampal slice

α7 neuronal nAChR, sequence (P36544 23-502): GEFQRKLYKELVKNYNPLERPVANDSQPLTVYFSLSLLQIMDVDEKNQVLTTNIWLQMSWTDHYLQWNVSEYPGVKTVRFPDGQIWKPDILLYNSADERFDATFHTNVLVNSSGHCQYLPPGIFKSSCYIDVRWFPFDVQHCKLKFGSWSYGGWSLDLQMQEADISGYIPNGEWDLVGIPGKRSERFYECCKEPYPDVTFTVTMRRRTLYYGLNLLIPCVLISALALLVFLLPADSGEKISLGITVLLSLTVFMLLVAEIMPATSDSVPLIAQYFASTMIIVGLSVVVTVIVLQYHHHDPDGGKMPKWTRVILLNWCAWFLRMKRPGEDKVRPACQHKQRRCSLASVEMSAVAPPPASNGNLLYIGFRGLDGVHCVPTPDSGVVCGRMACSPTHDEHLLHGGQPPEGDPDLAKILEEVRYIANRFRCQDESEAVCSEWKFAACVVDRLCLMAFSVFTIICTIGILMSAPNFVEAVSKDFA
α3β4, sequence (P32297 32-505): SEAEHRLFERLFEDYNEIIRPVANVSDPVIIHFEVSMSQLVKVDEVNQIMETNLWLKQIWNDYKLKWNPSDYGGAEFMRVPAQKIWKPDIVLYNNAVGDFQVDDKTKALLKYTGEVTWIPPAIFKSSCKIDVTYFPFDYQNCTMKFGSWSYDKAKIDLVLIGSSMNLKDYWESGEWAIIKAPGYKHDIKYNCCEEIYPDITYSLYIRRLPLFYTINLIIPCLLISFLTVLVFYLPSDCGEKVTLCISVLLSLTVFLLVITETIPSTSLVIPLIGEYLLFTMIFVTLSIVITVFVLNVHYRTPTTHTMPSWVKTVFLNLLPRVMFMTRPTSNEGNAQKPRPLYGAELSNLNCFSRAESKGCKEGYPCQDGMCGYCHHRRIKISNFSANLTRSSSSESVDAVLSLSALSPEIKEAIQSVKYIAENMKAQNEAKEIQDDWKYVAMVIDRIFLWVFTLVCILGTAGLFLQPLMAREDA
α3β4, sequence (P30926 22-498): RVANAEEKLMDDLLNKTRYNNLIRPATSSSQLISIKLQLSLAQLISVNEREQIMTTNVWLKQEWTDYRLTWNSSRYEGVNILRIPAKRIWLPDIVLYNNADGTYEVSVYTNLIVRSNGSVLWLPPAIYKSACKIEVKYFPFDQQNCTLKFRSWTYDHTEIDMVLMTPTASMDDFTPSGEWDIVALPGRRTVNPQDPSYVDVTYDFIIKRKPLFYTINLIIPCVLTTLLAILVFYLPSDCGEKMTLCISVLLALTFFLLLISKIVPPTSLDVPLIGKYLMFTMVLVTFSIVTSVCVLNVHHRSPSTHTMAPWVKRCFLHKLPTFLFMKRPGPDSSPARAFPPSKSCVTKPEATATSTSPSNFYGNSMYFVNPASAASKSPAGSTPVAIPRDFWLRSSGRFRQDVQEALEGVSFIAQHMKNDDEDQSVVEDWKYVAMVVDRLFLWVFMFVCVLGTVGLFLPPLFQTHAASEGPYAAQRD

SMILES: CC1=CC(O)CC(C)(O)C=CC(C(C)C)CCC(C)=CCC1 [4R cembranoid, (1S,2E,4R,6R,7E,11E)-cembra-2,7,11-triene-4,6-diol]
- Antagonism of α7 neuronal nAChR [1]: subtype selective antagonist
- Brain penetration [2]: readily penetrates into the brain
- Metabolism and excretion [2]: promptly metabolized in the liver and excreted as a soluble metabolite
- Activity at α3β4 subtypes [3]: little activity

SMILES: CCOP(=O)(OCC)Oc1ccc([N+](=O)[O-])cc1 [POX, paraoxon]
- Maximum inhibition of the PS [4]: ~50%
- IC50 ([4]; read-out: POX IC50 for inhibition of PS): ~1000 nM

SMILES: CN1[C@@H]2CC[C@H]1C[C@@H](OC(=O)C(CO)c1ccccc1)C2 (stereo partly shown) [atropine]
- Effect on PS area [5]: did not affect PS area
